{"source": "ChEMBL document CHEMBL5120900", "about": "“Structure-Based Discovery of a Series of NSD2-PWWP1 Inhibitors” (J Med Chem, 2022)", "key": {"[1]": {"test_system": "KMS-11", "assay": "Antiproliferative activity against human KMS-11 cells assessed as inhibition of cell proliferation measured after 6 days by CCK8 assay", "assay_type": "functional, cell-based", "settings": "KMS-11, 144 h"}, "[2]": {"test_system": "MV4-11", "assay": "Cell cycle arrest in human MV4-11 cells assessed as increase in accumulation of G0/G1 phase at 5 to 10 uM measured after 24 hrs by PI staining based flow cytometric analysis", "assay_type": "functional", "settings": "dose 5-10 µM"}, "[3]": {"test_system": "MV4-11", "assay": "Induction of apoptosis in human MV4-11 cells assessed as late apoptotic cells at 10 uM measured after 72 hrs by Annexin V FITC/PI staining based flow cytometry analysis (reference value: 3.02%)", "assay_type": "functional"}, "[4]": {"molecular_target": "T1, Histone-lysine N-methyltransferase NSD2 (Homo sapiens) (UniProt O96028)", "T1 sequence (whole entry)": "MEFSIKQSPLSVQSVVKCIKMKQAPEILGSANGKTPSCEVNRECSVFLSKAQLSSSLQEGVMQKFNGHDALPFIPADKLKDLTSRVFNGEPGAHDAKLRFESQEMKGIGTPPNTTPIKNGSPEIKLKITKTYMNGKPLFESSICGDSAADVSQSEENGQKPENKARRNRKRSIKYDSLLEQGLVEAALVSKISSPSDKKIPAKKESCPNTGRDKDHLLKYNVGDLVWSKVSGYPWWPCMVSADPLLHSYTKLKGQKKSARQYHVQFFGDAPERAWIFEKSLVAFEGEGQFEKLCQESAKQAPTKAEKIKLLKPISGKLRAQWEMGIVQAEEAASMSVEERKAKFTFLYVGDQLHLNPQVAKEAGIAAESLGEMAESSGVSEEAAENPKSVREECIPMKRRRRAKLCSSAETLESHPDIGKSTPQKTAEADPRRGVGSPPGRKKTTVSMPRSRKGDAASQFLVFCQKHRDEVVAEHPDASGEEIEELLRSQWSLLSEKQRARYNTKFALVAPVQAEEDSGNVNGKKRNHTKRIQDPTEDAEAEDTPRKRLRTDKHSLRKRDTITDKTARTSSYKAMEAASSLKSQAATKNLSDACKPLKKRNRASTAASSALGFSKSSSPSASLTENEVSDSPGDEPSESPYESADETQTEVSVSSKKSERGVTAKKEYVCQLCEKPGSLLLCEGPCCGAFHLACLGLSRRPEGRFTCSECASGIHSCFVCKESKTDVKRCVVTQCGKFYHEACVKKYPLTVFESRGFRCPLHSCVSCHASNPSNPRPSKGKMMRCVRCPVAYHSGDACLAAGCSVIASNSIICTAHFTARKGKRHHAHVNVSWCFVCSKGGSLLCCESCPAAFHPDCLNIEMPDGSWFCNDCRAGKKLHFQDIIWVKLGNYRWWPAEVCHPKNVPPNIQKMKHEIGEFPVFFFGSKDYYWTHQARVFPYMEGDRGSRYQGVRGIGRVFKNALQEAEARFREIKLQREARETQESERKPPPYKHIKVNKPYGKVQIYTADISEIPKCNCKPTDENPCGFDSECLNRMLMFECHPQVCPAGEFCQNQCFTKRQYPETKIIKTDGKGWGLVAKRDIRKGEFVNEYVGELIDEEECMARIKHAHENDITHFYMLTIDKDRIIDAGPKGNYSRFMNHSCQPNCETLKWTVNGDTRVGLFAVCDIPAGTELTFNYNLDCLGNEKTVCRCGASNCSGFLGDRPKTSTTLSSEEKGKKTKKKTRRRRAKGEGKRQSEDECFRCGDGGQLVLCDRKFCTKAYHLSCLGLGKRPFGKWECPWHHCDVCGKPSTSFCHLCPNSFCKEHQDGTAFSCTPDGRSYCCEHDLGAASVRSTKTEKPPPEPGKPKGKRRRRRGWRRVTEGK", "assay": "Inhibition of NSD2 in human KMS-11 cells assessed as decrease in RRAS2 gene expression at 10 uM incubated for 72 hrs by RT-PCR analysis", "assay_type": "cell-based"}, "[5]": {"test_system": "MV4-11", "assay": "Induction of apoptosis in human MV4-11 cells assessed as necrotic cells at 5 uM measured after 72 hrs by Annexin V FITC/PI staining based flow cytometry analysis (reference value: […])", "assay_type": "functional"}, "[6]": {"test_system": "KMS-11", "assay": "Induction of apoptosis in human KMS-11 cells assessed as early apoptotic cells at 10 uM measured after 72 hrs by Annexin V FITC/PI staining based flow cytometry analysis (reference value: 16.5 %)", "assay_type": "functional"}, "[7]": {"molecular_target": "T1, Histone-lysine N-methyltransferase NSD2 (Homo sapiens)", "assay": "Binding affinity to His6/Sumo-tagged NSD2 PWWP1 (unknown origin) (208 to 368 residues) expressed in Escherichia coli BL21 (DE3) assessed as increase in melting temperature by thermal shift assay", "settings": "DDE = dose-dependent effect"}, "[8]": {"molecular_target": "T1, Histone-lysine N-methyltransferase NSD2 (Homo sapiens)", "assay": "Inhibition of NSD2 in human KMS-11 cells assessed as decrease in TEMEL2 gene expression at 10 uM incubated for 72 hrs by RT-PCR analysis", "assay_type": "cell-based"}, "[9]": {"molecular_target": "T1, Histone-lysine N-methyltransferase NSD2 (Homo sapiens)", "assay": "Inhibition of NSD2 in human RS4-11 cells assessed as decrease in RRAS2 gene expression at 10 uM incubated for 72 hrs by RT-PCR analysis", "assay_type": "cell-based"}, "[10]": {"test_system": "KMS-11", "assay": "Induction of apoptosis in human KMS-11 cells assessed as late apoptotic cells at 10 uM measured after 72 hrs by Annexin V FITC/PI staining based flow cytometry analysis (reference value: 13.3 %)", "assay_type": "functional"}, "[11]": {"molecular_target": "T1, Histone-lysine N-methyltransferase NSD2 (Homo sapiens)", "assay": "Inhibition of NSD2 in human RS4-11 cells assessed as decrease in TGFA gene expression at 10 uM incubated for 72 hrs by RT-PCR analysis", "assay_type": "cell-based"}, "[12]": {"test_system": "KMS-11", "assay": "Induction of apoptosis in human KMS-11 cells assessed as late apoptotic cells at 5 uM measured after 72 hrs by Annexin V FITC/PI staining based flow cytometry analysis (reference value: 13.3 %)", "assay_type": "functional"}, "[13]": {"test_system": "MV4-11", "assay": "Induction of apoptosis in human MV4-11 cells assessed as early apoptotic cells at 5 uM measured after 72 hrs by Annexin V FITC/PI staining based flow cytometry analysis (reference value: 4.58 %)", "assay_type": "functional"}, "[14]": {"molecular_target": "T2, Histone-lysine N-methyltransferase NSD2 (Homo sapiens, UniProt O96028)", "T2 sequence (O96028 whole entry)": "T1 sequence (whole entry)", "assay": "Binding affinity to N-terminal His6/Sumo-tagged NSD2 PWWP1 domain (211 to 350 residues) (unknown origin) expressed in Escherichia coli BL21 (DE3) using ATKAARKSAPATGGV-Lys (me)2-KPHRYRPG polypeptide as substrate incubated for 3 hrs by HTRF assay"}}, "note": "Active and inactive are the calls of the source. The calls are words filed in the database; no cut-off is given here.", "data": [{"smiles": "Cc1cc(CN2CCC(N)CC2)cc(C)c1-c1ncn(C)c1-c1ccc(C#N)c2ccccc12", "values": [{"measurement": "IC50", "setting": "[1]", "result": 8.43, "unit": "µM"}, {"measurement": "Activity", "setting": "[2]", "result": "Active"}, {"measurement": "Activity", "setting": "[3]", "result": 19.8, "unit": "%"}, {"measurement": "inhibition", "setting": "[4]", "result": "Active"}, {"measurement": "Activity", "setting": "[5]", "result": 0.4, "unit": "%"}, {"measurement": "Activity", "setting": "[6]", "result": 28.7, "unit": "%"}, {"measurement": "Activity", "setting": "[7]", "result": "Dde"}, {"measurement": "inhibition", "setting": "[8]", "result": "Active"}, {"measurement": "inhibition", "setting": "[9]", "result": "Active"}, {"measurement": "Activity", "setting": "[10]", "result": 32.7, "unit": "%"}, {"measurement": "inhibition", "setting": "[11]", "result": "Active"}, {"measurement": "Activity", "setting": "[12]", "result": 16.5, "unit": "%"}, {"measurement": "Activity", "setting": "[13]", "result": 6.26, "unit": "%"}, {"measurement": "IC50", "setting": "[14]", "result": 0.11, "unit": "µM"}]}]}
